Test: Quantification of garlic-derived metabolites in human urine after ingestion of 3 g raw garlic (SIDA, SAFE, HRGC-MS / HRGC-GC-MS)
Format: in vivo
Details: for metabolite concentration in urine / metabolite concentration in urine, creatinine-normalized: 3 g raw garlic
Excerpt: Human urine samples were obtained from 18 volunteers (age 22–38 years, mean 27 years; 11 females, 7 males); thereby, one volunteer conducted the whole experimental series twice. At the time of examination, volunteers reported no known illness that might have potentially influenced the metabolism or the excretion of urine. The test persons were instructed to avoid foods that were rich in sulfur-containing substances at the testing day as well as 2 days preceding the testing day, namely garlic, onion, wild garlic, chives, cabbage, and leek, and were only allowed to consume the garlic sample provided in the course of the experiments. Additionally, subjects were asked to keep records of the food (including food supplements) and beverages they consumed during these 3 testing days. Generally, the overall panelists' requirements were in accordance with our previous studies ([5], [16]).
On the sampling day, the outer garlic cloves of a whole garlic bulb were peeled and cut into ~3 mm cubes by using a garlic cutter (Genius GmbH, Limburg/Lahn, Germany). Subsequently these cubes were thoroughly mixed and aliquoted into 3 g portions. Three to four test persons conducted the experiment at the same day. Each test person was asked to ingest a garlic portion of 3 g. In total, eight consecutive urine samples were provided by each test person, comprising one whole urine set. The samples were collected in sterile brown glass bottles, with sampling times as follows: one sample was provided directly prior to garlic consumption. The series of the second to eighth sample was then obtained at about 0.5, 1, 2, 4, 6, 8, and 24 h after garlic consumption, respectively. Between the first urine sample (prior to garlic consumption) and the seventh urine sample (8 h after garlic consumption) test persons only spent urine at the specific time points mentioned before. Another sample was provided at the next morning (24 h after garlic consumption). Between the samples provided 8 and 24 h after garlic consumption no urine was collected. All samples were immediately placed into a −80°C freezer and were kept frozen until further analysis.
The samples of each set were termed according to their sampling time. The following list provides the time intervals that are related to the respective sample name: • - pre: before garlic consumption • - 0.5 h post: 0.4–0.8 h after garlic consumption • - 1 h post: 0.9–1.3 h after garlic consumption • - 2 h post: 1.8 h−2.2 h after garlic consumption • - 4 h post: 3.8–4.4 h after garlic consumption • - 6 h post: 5.8–6.4 h after garlic consumption • - 8 h post: 7.8–8.4 h after garlic consumption • - 24 h post: 23.8–25.6 h after garlic consumption
A creatinine kit (Labor+Technik Eberhard Lehmann GmbH, Berlin, Germany) was used to determine the creatinine content in each urine sample. The determination principle of this kit is based on the reaction of creatinine with picric acid under basic conditions (Jaffé reaction). The formed complex was detected photometrically at a wavelength of 492 nm.
For quantification purposes, the deuterated standards ^2H3-AMS, ^2H3-AMSO, and ^2H3-AMSO2 were added to the sample and stirred for 10 min. Subsequently, DCM was added in a ratio of 1:2 (DCM/human urine; v/v) and this solution was stirred for further 30 min at room temperature. To isolate the volatile fraction from the urine samples we then applied SAFE-distillation ([17]), thereby distilling the respective samples at 50°C. After completion of the distillation process, 10 mL of DCM were applied in each case to rinse the SAFE apparatus and to ensure complete transition of the volatile compounds. This process was repeated with another 10 mL of DCM. After thawing, the obtained aqueous distillate phase was extracted three times with 25 mL DCM. The organic phases were combined, dried over anhydrous Na2SO4 and concentrated to a total volume of 100 μL by means of Vigreux distillation and subsequent micro-distillation at 50°C. […]

concentration in urine compared with human milk (3 g raw garlic in both studies, milk data ref 20): about twice as high | metabolite concentration in urine (U I, 0.5 h post (0.55 h)): 41.7 µg/kg | metabolite concentration in urine, creatinine-normalized (U I, 0.5 h post (0.55 h)): 5.8 µg/mmol creatinine | metabolite concentration in urine (U I, 1 h post (1.03 h)): 98.5 µg/kg | metabolite concentration in urine, creatinine-normalized (U I, 1 h post (1.03 h)): 106.3 µg/mmol creatinine | metabolite concentration in urine (U I, 2 h post (2.05 h)): 138.8 µg/kg | metabolite concentration in urine, creatinine-normalized (U I, 2 h post (2.05 h)): 68.4 µg/mmol creatinine | metabolite concentration in urine (U I, 4 h post (4.05 h)): 172.3 µg/kg | metabolite concentration in urine, creatinine-normalized (U I, 4 h post (4.05 h)): 19.6 µg/mmol creatinine | metabolite concentration in urine (U I, 6 h post (6.05 h)): 170.7 µg/kg | metabolite concentration in urine, creatinine-normalized (U I, 6 h post (6.05 h)): 18.6 µg/mmol creatinine | metabolite concentration in urine (U I, 8 h post (8.05 h)): 119.9 µg/kg | metabolite concentration in urine, creatinine-normalized (U I, 8 h post (8.05 h)): 16.3 µg/mmol creatinine | metabolite concentration in urine (U I, 24 h post (25.55 h)): 5.6 µg/kg | metabolite concentration in urine, creatinine-normalized (U I, 24 h post (25.55 h)): 0.9 µg/mmol creatinine | metabolite concentration in urine (U I, pre (-0.03 h)): < LOD^3 | metabolite concentration in urine, creatinine-normalized (U I, pre (-0.03 h)): < LOD^3 | metabolite concentration in urine (U II, 0.5 h post (0.50 h)): 32.4 µg/kg | metabolite concentration in urine, creatinine-normalized (U II, 0.5 h post (0.50 h)): 3.0 µg/mmol creatinine | metabolite concentration in urine (U II, 1 h post (1.00 h)): 68.0 µg/kg | metabolite concentration in urine, creatinine-normalized (U II, 1 h post (1.00 h)): 26.1 µg/mmol creatinine | metabolite concentration in urine (U II, 2 h post (2.00 h)): 62.1 µg/kg | metabolite concentration in urine, creatinine-normalized (U II, 2 h post (2.00 h)): 61.0 µg/mmol creatinine | metabolite concentration in urine (U II, 4 h post (4.00 h)): 75.1 µg/kg | metabolite concentration in urine, creatinine-normalized (U II, 4 h post (4.00 h)): 13.8 µg/mmol creatinine | metabolite concentration in urine (U II, 6 h post (6.00 h)): 61.7 µg/kg | metabolite concentration in urine, creatinine-normalized (U II, 6 h post (6.00 h)): 6.8 µg/mmol creatinine | metabolite concentration in urine (U II, 8 h post (8.00 h)): 41.3 µg/kg | metabolite concentration in urine, creatinine-normalized (U II, 8 h post (8.00 h)): 4.9 µg/mmol creatinine | metabolite concentration in urine (U II, 24 h post (24.12 h)): 1.9 µg/kg | metabolite concentration in urine, creatinine-normalized (U II, 24 h post (24.12 h)): 0.1 µg/mmol creatinine | metabolite concentration in urine (U II, pre (-0.13 h)): < LOD^3 | metabolite concentration in urine, creatinine-normalized (U II, pre (-0.13 h)): < LOD^3 | metabolite concentration in urine (U III, 0.5 h post (0.53 h)): 41.9 µg/kg | metabolite concentration in urine, creatinine-normalized (U III, 0.5 h post (0.53 h)): 24.9 µg/mmol creatinine | metabolite concentration in urine (U III, 1 h post (1.07 h)): 83.3 µg/kg | metabolite concentration in urine, creatinine-normalized (U III, 1 h post (1.07 h)): 117.5 µg/mmol creatinine | metabolite concentration in urine (U III, 2 h post (2.18 h)): 145.2 µg/kg | metabolite concentration in urine, creatinine-normalized (U III, 2 h post (2.18 h)): 89.7 µg/mmol creatinine | metabolite concentration in urine (U III, 4 h post (4.35 h)): 168.2 µg/kg | metabolite concentration in urine, creatinine-normalized (U III, 4 h post (4.35 h)): 63.4 µg/mmol creatinine | metabolite concentration in urine (U III, 6 h post (6.35 h)): 134.9 µg/kg | metabolite concentration in urine, creatinine-normalized (U III, 6 h post (6.35 h)): 26.1 µg/mmol creatinine | metabolite concentration in urine (U III, 8 h post (8.43 h)): 86.7 µg/kg | metabolite concentration in urine, creatinine-normalized (U III, 8 h post (8.43 h)): 15.3 µg/mmol creatinine | metabolite concentration in urine (U III, 24 h post (23.90 h)): 5.6 µg/kg | metabolite concentration in urine, creatinine-normalized (U III, 24 h post (23.90 h)): 0.9 µg/mmol creatinine | metabolite concentration in urine (U III, pre (-0.03 h)): 7.3 µg/kg | metabolite concentration in urine, creatinine-normalized (U III, pre (-0.03 h)): 1.3 µg/mmol creatinine | metabolite concentration in urine (U IV, 0.5 h post (0.55 h)): 31.0 µg/kg | metabolite concentration in urine, creatinine-normalized (U IV, 0.5 h post (0.55 h)): 6.6 µg/mmol creatinine | metabolite concentration in urine (U IV, 1 h post (1.05 h)): 63.2 µg/kg | metabolite concentration in urine, creatinine-normalized (U IV, 1 h post (1.05 h)): 52.7 µg/mmol creatinine | metabolite concentration in urine (U IV, 2 h post (2.12 h)): 82.8 µg/kg | metabolite concentration in urine, creatinine-normalized (U IV, 2 h post (2.12 h)): 52.5 µg/mmol creatinine | metabolite concentration in urine (U IV, 4 h post (4.05 h)): 108.4 µg/kg | metabolite concentration in urine, creatinine-normalized (U IV, 4 h post (4.05 h)): 22.3 µg/mmol creatinine
SMILES: C=CCS(C)(=O)=O [AMSO2, allyl methyl sulfone]

Reference: publication PMC6499206, “Quantification of Volatile Metabolites Derived From Garlic (Allium sativum) in Human Urine” (Frontiers in Nutrition, 2019)
